# According to patent US20230365563A1, “QUINAZOLINE COMPOUND AND APPLICATION THEREOF” (SHANGHAI PHARMACEUTICALS HOLDING CO., LTD., priority 2020, published 2023):
# Values joined by “and” are separate entries in the source; they are usually repeats but may differ in a detail not shown here. Equal entries are not always repeated. Structures can show the parent of a compound that is named as a salt.
# What was measured:
# KRAS-G12D and SOS1 = target: T1, KRAS-G12D and SOS1 (Homo sapiens, UniProt P01116, G12D); assay: Inhibition of KRAS-G12D/SOS1 binding (Cisbio binding kit, 665/615 ratio), Effect Embodiment A; details: read-out: GTP-KRAS-G12D:SOS1 IC50
# T1 construct: purchased
# Summary of the method: (§1)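 Compounds underwent 3-fold dilution from their storage solutions (11 points), were transferred to assay wells in duplicate with DMSO held at 1% final, and were briefly centrifuged.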
# KRAS_G12D and cRAF = target: T2, KRAS_G12D and cRAF (Homo sapiens, UniProt P01116, G12D); assay: Inhibition of KRAS_G12D/cRAF binding (Cisbio binding kit, 665/615 ratio), Effect Embodiment B; details: read-out: GTP-KRAS-G12D:CRAF IC50
# T2 construct: purchased
# Summary of the method: as §1
# KRAS_WT and SOS1 = target: T3, KRAS_WT and SOS1 (Homo sapiens, UniProt P01116); assay: Inhibition of KRAS_WT/SOS1 binding (Cisbio binding kit, 665/615 ratio), Effect Embodiment C; details: read-out: GTP-KRAS-WT:SOS1 IC50
# T3 construct: purchased
# Summary of the method: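 Compounds tested as 3-fold, 11-point dilutions in duplicate at 1% DMSO final against the KRAS_WT/SOS1 binding system. IC50 derived by nonlinear regression fit.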
Molecule,IC50 (KRAS-G12D and SOS1),IC50 (KRAS_G12D and cRAF),IC50 (KRAS_WT and SOS1)
"CN(C)CCCOc1nc(N2C[C@H]3CC[C@@H](C2)N3)c2ccc(-c3cc(O)cc4ccccc34)c(F)c2n1 [Compound 143, 4-(4-((1R,5S)-3,8-diazabicyclo[3.2.1]octan-3-yl)-2-(3-(dimethylamino)propoxy)-8-fluoroquinazolin-7-yl)naphthalen-2-ol]",16.7 nM and 21.2 nM,47.7 nM,765 nM
"CN1CCC[C@H]1COc1nc(N2C[C@H]3CC[C@@H](C2)N3)c2ccc(-c3cc(O)cc4ccccc34)c(F)c2n1 [Compound 144, 4-(4-((1R,5S)-3,8-diazabicyclo[3.2.1]octan-3-yl)-8-fluoro-2-((S)-1-methylpyrrolidin-2-yl)methoxy)quinazolin-7-yl)naphthalen-2-ol tritrifluoroacetate]",14.4 nM,17.9 nM,180 nM
"CN1CCC[C@H]1COc1nc(N2C[C@H]3C=C[C@@H](C2)N3)c2cnc(-c3cc(O)cc4ccccc34)c(F)c2n1 [Compound 159, 4-(4-((1R,5S)-3,8-diazabicyclo[3.2.1]oct-6-en-3-yl)-8-fluoro-2-(((S)-1-methylpyrrolidin-2-yl)methoxy)pyrido[4,3-d]pyrimidin-7-yl)naphthalen-2-ol diformate]",30.8 nM,55.2 nM,196 nM
"CN1CCC[C@H]1COc1nc(N2CC3CCC(C2)N3)c2cc(F)c(-c3cc(O)cc4ccccc34)c(F)c2n1 [Compound 160, 4-(4-((1R,5S)-3,8-diazabicyclo[3.2.1]octan-3-yl)-6,8-difluoro-2-((S)-1-methylpyrrolidin-2-yl)methoxy)quinazolin-7-yl)naphthalen-2-ol dihydrochloride]",27.4 nM,32.4 nM,390 nM
"Oc1cc(-c2c(Cl)cc3c(N4CC5CCC(C4)N5)nc(OC[C@@H]4CCCN4CC4CC4)nc3c2F)c2ccccc2c1 [Compound 172, 4-(4-((1R,5S)-3,8-diazabicyclo[3.2.1]octan-3-yl)-6-chloro-2-((S)-1-(cyclopropylmethyl)pyrrolidin-2-yl)methoxy)-8-fluoroquinazolin-7-yl)naphthalen-2-ol dihydrochloride]",19.3 nM,62.7 nM,658 nM
"Oc1cc(-c2cc(F)c3c(N4CC5CCC(C4)N5)nc(OCCCN4C5CCC4COC5)nc3c2F)c2ccccc2c1 [Compound 253, 4-(2-(3-(3-Oxa-8-azabicyclo[3.2.1]octan-8-yl)propoxy)-4-((1R,5S)-3,8-diazabicyclo[3.2.1]octan-3-yl)-5,8-difluoroquinazolin-7-yl)naphthalen-2-ol formate]",63 nM,489 nM,1980 nM
"((3R or 3S, 7aR or 7aS)-7a-((4-((1R,5S)-3,8-diazabicyclo[3.2.1]octan-3-yl)-6-chloro-8-fluoro-7-(3-hydroxynaphthalen-1-yl)quinazolin-2-yl)oxy)methyl)hexahydro-1H-pyrrolidin-3-yl)dimethylcarbamate tristrifluoroacetate [Compound 232b]",13.5 nM,14.8 nM,66.2 nM

# The remaining lines, values ahead:
IC50 (KRAS-G12D and SOS1),IC50 (KRAS_G12D and cRAF),IC50 (KRAS_WT and SOS1),Molecule
30.7 nM,67.5 nM,1160 nM,"CN1CCC[C@@]1(C)COc1nc(N2CC3CCC(C2)N3)c2cnc(-c3cc(O)cc4ccccc34)c(F)c2n1 [Compound 136, 4-(4-((1R,5S)-3,8-diazabicyclo[3.2.1]octan-3-yl)-2-((S)-1,2-methylpyrrolidin-2-yl)methoxy)-8-fluoropyridinyl[4,3-d]pyrimidin-7-yl)naphthalen-2-ol diformate]"
13.3 nM,10.7 nM,123 nM,"CN1CC2(CC2)C[C@H]1COc1nc(N2CC3CCC(C2)N3)c2cnc(-c3cc(O)cc4ccccc34)c(F)c2n1 [Compound 137, 4-(4-((1R,5S)-3,8-diazabicyclo[3.2.1]octan-3-yl)-8-fluoro-2-((S)-5-methyl-5-azaspiro[2.4]heptan-6-yl)methoxy)pyridin[4,3-d]pyrimidin-7-yl)naphthalen-2-ol diformate]"
37.2 nM,129 nM,1920 nM,"CN1CC(C)(C)C[C@H]1COc1nc(N2CC3CCC(C2)N3)c2cnc(-c3cc(O)cc4ccccc34)c(F)c2n1 [Compound 139, 4-(4-((1R,5S)-3,8-diazabicyclo[3.2.1]octan-3-yl)-8-fluoro-2-((S)-1,4,4-trimethylpyrrolidin-2-yl)methoxy)pyridinyl[4,3-d]pyrimidin-7-yl)naphthalen-2-ol diformate]"
32.8 nM,95.7 nM,1360 nM,"CN1C[C@@H]2C[C@@H]2[C@H]1COc1nc(N2CC3CCC(C2)N3)c2cnc(-c3cc(O)cc4ccccc34)c(F)c2n1 [Compound 140, 4-(4-((1R,5S)-3,8-diazabicyclo[3.2.1]octan-3-yl)-8-fluoro-2-((1S,2S,5R)-3-methyl-3-azabicyclo[3.1.0]hexan-2-yl)methoxy)pyridin[4,3-d]pyrimidin-7-yl)naphthalen-2-ol dihydrochloride]"
16 nM,30.5 nM,394 nM,"C[C@@H]1C[C@@H](COc2nc(N3CC4CCC(C3)N4)c3cnc(-c4cc(O)cc5ccccc45)c(F)c3n2)N(C)C1 [Compound 142, 4-(4-((1R,5S)-3,8-diazabicyclo[3.2.1]octan-3-yl)-2-((2S,4R)-1,4-methylpyrrolidin-2-yl)methoxy)-8-fluoropyridinyl[4,3-d]pyrimidin-7-yl)naphthalen-2-ol diformate]"
